Usually melting point stands for the temperature of the solid-liquid transition. Usually pIC50 stands for the negative decadic logarithm of the IC50, by convention in mol/L.

The subject of one data set is HT-29 cells. Nature of the data set: Cell proliferation test procedure, HT-29 cells. The class given is cell-based. To be noted: Homo sapiens, read-out: HT-29 prolif IC50. Here is the method:
HT-29 cells: Compound effectiveness at inhibiting cell proliferation on plastic is performed in a 96-well format by plating 5000 cells per well in appropriate medium on day one, followed by compound addition on day 2 in serial two-fold dilutions. On day five, compound is washed away and medium containing MTS reagent (Promega) is added. Relative cell number is determined by reading the absorbance at 490 nm of a dye produced by an NAD-dependent cellular enzymatic reaction.

pIC50: −log10 of the molar value.

As for `COc1cc(Nc2c(C#N)cnc3cc4cc(OCCN5CCOCC5)c(OC)cc4cc23)c(Cl)cc1C` [Example 216, 4-(2-Chloro-5-methoxy-4-methylphenylamino)-7-methoxy-8-(2-morpholin-4-yl-ethoxy)benzo[g]quinoline-3-carbonitrile], the melting point lay within 220 to 222 °C. Further, the pIC50 in the data set with HT-29 cells was 5.00.
